# Values of other authors as cited in patent EP3360549A1, “SMALL MOLECULE THERAPEUTICS FOR TREATING METACHROMATIC LEUKODYSTROPHY” (Rheinische Friedrich-Wilhelms-Universität Bonn, priority 2017, dated 2018).
# Test system: sulfatides
# Settings: mice, brain; reduction, along with cerebrosides and sphingomyelin
structure (smiles),measurement,value
CC(=O)CC(c1ccccc1)c1c(O)c2ccccc2oc1=O (stereo not shown) [Warfarin],reduce the levels of sulfatides,33%
